Source: US20190345138A1, “HETEROCYCLIC AMIDES AS KINASE INHIBITORS” (GlaxoSmithKline Intellectual Property Development Limited, priority 2016, published 2019)
Where “and” joins values, the source holds several entries; their conditions need not be identical. Identical values can stand only once.

What follows are compounds tested against T1, RIP1 kinase (Homo sapiens, UniProt Q13546) (assay: fluorescent polarization based binding assay). Details: mean of a minimum of 2 experiments.
T1 sequence (Q13546 1-375 limits assumed): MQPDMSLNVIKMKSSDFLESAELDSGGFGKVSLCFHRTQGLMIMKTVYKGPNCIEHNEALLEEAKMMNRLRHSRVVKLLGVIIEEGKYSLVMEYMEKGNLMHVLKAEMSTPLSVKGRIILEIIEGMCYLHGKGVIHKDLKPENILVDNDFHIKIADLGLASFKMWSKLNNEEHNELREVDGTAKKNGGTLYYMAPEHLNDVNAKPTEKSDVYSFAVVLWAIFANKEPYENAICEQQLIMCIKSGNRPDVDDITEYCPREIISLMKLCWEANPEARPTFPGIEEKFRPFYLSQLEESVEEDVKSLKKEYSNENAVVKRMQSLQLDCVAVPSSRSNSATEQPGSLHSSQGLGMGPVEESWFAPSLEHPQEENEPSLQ
From the text: A fluorescent polarization based binding assay was used to assess the activity of the compounds of this invention, the details of which are disclosed in International Patent Appln. No. PCT/IB2014/059004, now, International Patent Appln. Pub.

Row | SMILES | IC50
1 | O=C(C1CCN(c2ncc(F)c(OCCO)n2)CC1)N1N=CC[C@H]1c1ccccc1 [Example 155, (S)-(1-(5-fluoro-4-(2-hydroxyethoxy)pyrimidin-2-yl)piperidin-4-yl)(5-phenyl-4,5-dihydro-1H-pyrazol-1-yl)methanone] | 1 to 31.6 nM
2 | COc1cnc(N2CCC(C(=O)N3N=CC[C@H]3c3cc(F)ccc3F)CC2)nc1 [Example 101, (S)-(5-(2,5-difluorophenyl)-4,5-dihydro-1H-pyrazol-1-yl)(1-(5-methoxypyrimidin-2-yl)piperidin-4-yl)methanone] | 1 to 31.6 nM and 1 to 10 nM
3 | O=C(c1ccnc(N2CCC(C(=O)N3N=CC[C@H]3c3ccccc3)CC2)n1)N1CCNCC1 [Example 146, (S)-(5-phenyl-4,5-dihydro-1H-pyrazol-1-yl)(1-(4-(piperazine-1-carbonyl)pyrimidin-2-yl)piperidin-4-yl)methanone] | 1 to 31.6 nM
4 | N#Cc1cccc([C@@H]2CC=NN2C(=O)C2CCN(c3cc(C#N)ncn3)CC2)c1 [Example 68, (S)-6-(4-(5-(3-cyanophenyl)-4,5-dihydro-1H-pyrazole-1-carbonyl)piperidin-1-yl)pyrimidine-4-carbonitrile] | 1 to 31.6 nM
5 | NC(=O)c1coc(N2CCC(C(=O)N3N=CC[C@H]3c3ccccc3)CC2)n1 [Example 136, (S)-2-(4-(5-phenyl-4,5-dihydro-1H-pyrazole-1-carbonyl)piperidin-1-yl)oxazole-4-carboxamide] | 1 to 31.6 nM
6 | O=C(C1CCN(c2ccn3nccc3n2)CC1)N1N=CC[C@H]1c1cc(F)cc(F)c1 [Example 90, (S)-(5-(3,5-difluorophenyl)-4,5-dihydro-1H-pyrazol-1-yl)(1-(pyrazolo[1,5-a]pyrimidin-5-yl)piperidin-4-yl)methanone] | 1 to 31.6 nM and 1 to 10 nM
7 | O=C(C1CCN(c2nc(=O)c3cn[nH]c3[nH]2)CC1)N1N=CC[C@H]1c1ccccc1 [Example 37, (S)-6-(4-(5-phenyl-4,5-dihydro-1H-pyrazole-1-carbonyl)piperidin-1-yl)-1H-pyrazolo[3,4-d]pyrimidin-4(7H)-one] | 1 to 31.6 nM
8 | COc1nccc(N2CCC(C(=O)N3N=CC[C@H]3c3cccc(C#N)c3)CC2)n1 [Example 75, (S)-3-(1-(1-(2-methoxypyrimidin-4-yl)piperidine-4-carbonyl)-4,5-dihydro-1H-pyrazol-5-yl)benzonitrile] | 1 to 31.6 nM
9 | COC(=O)c1cnc(N2CCC(C(=O)N3N=CC[C@H]3c3ccccc3)CC2)nc1 [Example 10, (S)-methyl 2-(4-(5-phenyl-4,5-dihydro-1H-pyrazole-1-carbonyl)piperidin-1-yl)pyrimidine-5-carboxylate] | 1 to 31.6 nM
10 | CC(=O)Nc1cc(N2CCC(C(=O)N3N=CC[C@H]3c3cc(F)cc(F)c3)CC2)ncn1 [Example 120, (S)-N-(6-(4-(5-(3,5-difluorophenyl)-4,5-dihydro-1H-pyrazole-1-carbonyl)piperidin-1-yl)pyrimidin-4-yl)acetamide] | 1 to 31.6 nM
11 | CSc1nccc(N2CCC(C(=O)N3N=CC[C@H]3c3cncc(F)c3)CC2)n1 [Example 114, (S)-(5-(5-fluoropyridin-3-yl)-4,5-dihydro-1H-pyrazol-1-yl)(1-(2-(methylthio)pyrimidin-4-yl)piperidin-4-yl)methanone] | 1 to 31.6 nM
12 | CCOC(=O)c1coc(N2CCC(C(=O)N3N=CC[C@H]3c3ccccc3)CC2)n1 [Example 65, (S)-ethyl 2-(4-(5-phenyl-4,5-dihydro-1H-pyrazole-1-carbonyl)piperidin-1-yl)oxazole-4-carboxylate] | 1 to 31.6 nM
13 | CCOC(=O)c1cnc(N2CCC(C(=O)N3N=CC[C@H]3c3cc(F)cc(F)c3)CC2)o1 [Example 107, (S)-ethyl 2-(4-(5-(3,5-difluorophenyl)-4,5-dihydro-1H-pyrazole-1-carbonyl)piperidin-1-yl)oxazole-5-carboxylate] | 1 to 31.6 nM
14 | O=C1NCC[C@@H]1c1nc(N2CCC(C(=O)N3N=CC[C@H]3c3cncc(F)c3)CC2)ncc1F [Example 166, (R)-3-(5-fluoro-2-(4-((S)-5-(5-fluoropyridin-3-yl)-4,5-dihydro-1H-pyrazole-1-carbonyl)piperidin-1-yl)pyrimidin-4-yl)pyrrolidin-2-one] | 1 to 31.6 nM
15 | NC(=O)c1ccc(N2CCC(C(=O)N3N=CC[C@H]3c3ccccc3)CC2)nc1 [Example 30, (S)-6-(4-(5-phenyl-4,5-dihydro-1H-pyrazole-1-carbonyl)piperidin-1-yl)nicotinamide] | 1 to 31.6 nM
16 | O=C(C1CCN(c2nccc(-c3nn[nH]n3)n2)CC1)N1N=CC[C@H]1c1ccccc1 [Example 148, (S)-(1-(4-(2H-tetrazol-5-yl)pyrimidin-2-yl)piperidin-4-yl)(5-phenyl-4,5-dihydro-1H-pyrazol-1-yl)methanone] | 1 to 31.6 nM and 1 to 10 nM
17 | N#Cc1cccc([C@@H]2CC=NN2C(=O)C2CCN(c3ccn4nccc4n3)CC2)c1 [Example 62, (S)-3-(1-(1-(pyrazolo[1,5-a]pyrimidin-5-yl)piperidine-4-carbonyl)-4,5-dihydro-1H-pyrazol-5-yl)benzonitrile] | 1 to 31.6 nM
18 | COc1cc(N2CCC(C(=O)N3N=CC[C@H]3c3cncc(F)c3)CC2)ncn1 [Example 113, (S)-(5-(5-fluoropyridin-3-yl)-4,5-dihydro-1H-pyrazol-1-yl)(1-(6-methoxypyrimidin-4-yl)piperidin-4-yl)methanone] | 1 to 31.6 nM
19 | NC(=O)c1cnc(N2CCC(C(=O)N3N=CC[C@H]3c3ccccc3)CC2)cn1 [Example 63, (S)-5-(4-(5-phenyl-4,5-dihydro-1H-pyrazole-1-carbonyl)piperidin-1-yl)pyrazine-2-carboxamide] | 1 to 31.6 nM
20 | O=C(C1CCN(c2ncc(F)c(OCc3nn[nH]n3)n2)CC1)N1N=CC[C@H]1c1ccccc1 [Example 154, (S)-(1-(4-((2H-tetrazol-5-yl)methoxy)-5-fluoropyrimidin-2-yl)piperidin-4-yl)(5-phenyl-4,5-dihydro-1H-pyrazol-1-yl)methanone] | 1 to 31.6 nM and 1 to 10 nM
21 | NC(=O)COc1nc(N2CCC(C(=O)N3N=CC[C@H]3c3ccccc3)CC2)ncc1F [Example 167, (S)-2-((5-fluoro-2-(4-(5-phenyl-4,5-dihydro-1H-pyrazole-1-carbonyl)piperidin-1-yl)pyrimidin-4-yl)oxy)acetamide] | 1 to 31.6 nM

These compounds were tested on human monocytic leukemia U937 cells (assay: necroptosis assay in U937 cells). Details: Homo sapiens, U-937, U937 cells; viability by cellular ATP (Cell Titer-Glo); read-out: pIC50, inhibited necrosis in U937 cells (converted).
Format: cell-based
Description: The efficacy of RIP1 inhibitors can be tested […] in vitro using a human monocytic leukemia U937 or mouse L929 fibrosarcoma cells in a necroptosis assay. As determined using the method described in S. He et al., Cell, 137(6):1100-1111 (2009) and International Patent Appln. No. PCT/IB2014/059004, now, International Patent Appln. Pub.
Viability was measured by quantitating cellular levels of ATP using the Cell Titer-Glo kit. All data are means±standard deviation of the mean.

Row | SMILES | IC50
22 | O=C(C1CCN(c2ncc(F)c(OCCO)n2)CC1)N1N=CC[C@H]1c1ccccc1 [Example 155, (S)-(1-(5-fluoro-4-(2-hydroxyethoxy)pyrimidin-2-yl)piperidin-4-yl)(5-phenyl-4,5-dihydro-1H-pyrazol-1-yl)methanone] | 1 to 100 nM
23 | COc1cnc(N2CCC(C(=O)N3N=CC[C@H]3c3cc(F)ccc3F)CC2)nc1 [Example 101, (S)-(5-(2,5-difluorophenyl)-4,5-dihydro-1H-pyrazol-1-yl)(1-(5-methoxypyrimidin-2-yl)piperidin-4-yl)methanone] | 1 to 100 nM
24 | O=C(c1ccnc(N2CCC(C(=O)N3N=CC[C@H]3c3ccccc3)CC2)n1)N1CCNCC1 [Example 146, (S)-(5-phenyl-4,5-dihydro-1H-pyrazol-1-yl)(1-(4-(piperazine-1-carbonyl)pyrimidin-2-yl)piperidin-4-yl)methanone] | 1 to 100 nM
25 | N#Cc1cccc([C@@H]2CC=NN2C(=O)C2CCN(c3cc(C#N)ncn3)CC2)c1 [Example 68, (S)-6-(4-(5-(3-cyanophenyl)-4,5-dihydro-1H-pyrazole-1-carbonyl)piperidin-1-yl)pyrimidine-4-carbonitrile] | 1 to 100 nM
26 | O=C(NC1CC1)c1ccnc(N2CCC(C(=O)N3N=CC[C@H]3c3ccccc3)CC2)n1 [Example 125, (S)—N-cyclopropyl-2-(4-(5-phenyl-4,5-dihydro-1H-pyrazole-1-carbonyl)piperidin-1-yl)pyrimidine-4-carboxamide] | 1 to 100 nM
27 | N#Cc1ccnc(N2CCC(C(=O)N3N=CCC3c3ccccc3)CC2)n1 (racemic) [Example 5, 2-(4-(5-phenyl-4,5-dihydro-1H-pyrazole-1-carbonyl)piperidin-1-yl)pyrimidine-4-carbonitrile] | 1 to 100 nM
28 | O=C(C1CCN(c2nccc(-c3ccccc3)n2)CC1)N1N=CCC1c1ccccc1 (racemic) [Example 4, (5-phenyl-4,5-dihydro-1H-pyrazol-1-yl)(1-(4-phenylpyrimidin-2-yl)piperidin-4-yl)methanone] | 1 to 100 nM
29 | NC(=O)c1ncnc(N2CCC(C(=O)N3N=CC[C@H]3c3cncc(F)c3)CC2)c1F [Example 160, (S)-5-fluoro-6-(4-(5-(5-fluoropyridin-3-yl)-4,5-dihydro-1H-pyrazole-1-carbonyl)piperidin-1-yl)pyrimidine-4-carboxamide] | 1 to 100 nM
30 | O=C1NCCC1c1nc(N2CCC(C(=O)N3N=CC[C@H]3c3cncc(F)c3)CC2)ncc1F (stereo partly drawn) [Example 151, 3-(5-fluoro-2-(4-((S)-5-(5-fluoropyridin-3-yl)-4,5-dihydro-1H-pyrazole-1-carbonyl)piperidin-1-yl)pyrimidin-4-yl)pyrrolidin-2-one] | 1 to 100 nM
31 | N#Cc1cnc(N2CCC(C(=O)N3N=CC[C@H]3c3cc(F)cc(F)c3)CC2)cn1 [Example 95, (S)-5-(4-(5-(3,5-difluorophenyl)-4,5-dihydro-1H-pyrazole-1-carbonyl)piperidin-1-yl)pyrazine-2-carbonitrile] | 1 to 100 nM
32 | Cc1nnc(-c2cc(N3CCC(C(=O)N4N=CC[C@H]4c4ccccc4)CC3)ncn2)o1 [Example 129, (S)-(1-(6-(5-methyl-1,3,4-oxadiazol-2-yl)pyrimidin-4-yl)piperidin-4-yl)(5-phenyl-4,5-dihydro-1H-pyrazol-1-yl)methanone] | 1 to 100 nM
33 | N#Cc1cc(N2CCC(C(=O)N3N=CC[C@H]3c3cncc(F)c3)CC2)ncn1 [Example 111, (S)-6-(4-(5-(5-fluoropyridin-3-yl)-4,5-dihydro-1H-pyrazole-1-carbonyl)piperidin-1-yl)pyrimidine-4-carbonitrile] | 1 to 100 nM
34 | N#Cc1ccc(N2CCC(C(=O)N3N=CC[C@H]3c3cc(F)cc(F)c3)CC2)nn1 [Example 94, (S)-6-(4-(5-(3,5-difluorophenyl)-4,5-dihydro-1H-pyrazole-1-carbonyl)piperidin-1-yl)pyridazine-3-carbonitrile] | 1 to 100 nM
